The values that follow come from patent publication US6608086B2, “Dihydropyridines and new uses thereof” (Synaptic Pharmaceutical Corporation, priority 1993, dated 2003).

Test [1] deals with T1, α1A Human Adrenergic Receptor (Homo sapiens, UniProt P25100).
T1 construct: The entire coding region of α1A (1719 bp); expressed in transfected cells
T1 sequence (P25100 1-572): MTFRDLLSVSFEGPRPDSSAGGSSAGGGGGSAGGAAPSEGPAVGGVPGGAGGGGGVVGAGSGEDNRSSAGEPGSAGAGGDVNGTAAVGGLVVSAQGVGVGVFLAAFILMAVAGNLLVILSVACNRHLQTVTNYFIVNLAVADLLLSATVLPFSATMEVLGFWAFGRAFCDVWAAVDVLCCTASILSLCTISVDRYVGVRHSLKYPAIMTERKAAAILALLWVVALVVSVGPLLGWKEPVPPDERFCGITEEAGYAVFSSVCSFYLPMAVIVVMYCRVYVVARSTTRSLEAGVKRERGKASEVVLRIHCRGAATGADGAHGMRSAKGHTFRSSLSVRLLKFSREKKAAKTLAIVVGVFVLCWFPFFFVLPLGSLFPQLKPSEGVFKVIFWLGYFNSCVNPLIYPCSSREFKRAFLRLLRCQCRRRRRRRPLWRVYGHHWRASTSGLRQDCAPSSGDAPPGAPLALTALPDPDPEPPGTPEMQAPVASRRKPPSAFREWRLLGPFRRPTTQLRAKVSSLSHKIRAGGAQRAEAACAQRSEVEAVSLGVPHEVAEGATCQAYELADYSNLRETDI
As to the kind of experiment: Radioligand binding, [3H]prazosin, cloned human α1A adrenergic receptor. The settings on record: for pKi: pKi alpha-1 1a. In outline:
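Competition binding used membrane preparations of transfected LM(tk−) cells and the α1 antagonist [3H]prazosin at 0.5 nM, incubated 20 min at 37° C in Tris-HCl buffer, pH 7.5.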

The target in a further test is T2, L-type calcium channel (Rattus norvegicus, UniProt P22002).
T2 construct: membrane fragments of rat cardiac muscle; from tissue; host or cells: rat cardiac muscle membranes
T2 sequence (P22002 whole entry, other chains not shown, the tested form may be a part): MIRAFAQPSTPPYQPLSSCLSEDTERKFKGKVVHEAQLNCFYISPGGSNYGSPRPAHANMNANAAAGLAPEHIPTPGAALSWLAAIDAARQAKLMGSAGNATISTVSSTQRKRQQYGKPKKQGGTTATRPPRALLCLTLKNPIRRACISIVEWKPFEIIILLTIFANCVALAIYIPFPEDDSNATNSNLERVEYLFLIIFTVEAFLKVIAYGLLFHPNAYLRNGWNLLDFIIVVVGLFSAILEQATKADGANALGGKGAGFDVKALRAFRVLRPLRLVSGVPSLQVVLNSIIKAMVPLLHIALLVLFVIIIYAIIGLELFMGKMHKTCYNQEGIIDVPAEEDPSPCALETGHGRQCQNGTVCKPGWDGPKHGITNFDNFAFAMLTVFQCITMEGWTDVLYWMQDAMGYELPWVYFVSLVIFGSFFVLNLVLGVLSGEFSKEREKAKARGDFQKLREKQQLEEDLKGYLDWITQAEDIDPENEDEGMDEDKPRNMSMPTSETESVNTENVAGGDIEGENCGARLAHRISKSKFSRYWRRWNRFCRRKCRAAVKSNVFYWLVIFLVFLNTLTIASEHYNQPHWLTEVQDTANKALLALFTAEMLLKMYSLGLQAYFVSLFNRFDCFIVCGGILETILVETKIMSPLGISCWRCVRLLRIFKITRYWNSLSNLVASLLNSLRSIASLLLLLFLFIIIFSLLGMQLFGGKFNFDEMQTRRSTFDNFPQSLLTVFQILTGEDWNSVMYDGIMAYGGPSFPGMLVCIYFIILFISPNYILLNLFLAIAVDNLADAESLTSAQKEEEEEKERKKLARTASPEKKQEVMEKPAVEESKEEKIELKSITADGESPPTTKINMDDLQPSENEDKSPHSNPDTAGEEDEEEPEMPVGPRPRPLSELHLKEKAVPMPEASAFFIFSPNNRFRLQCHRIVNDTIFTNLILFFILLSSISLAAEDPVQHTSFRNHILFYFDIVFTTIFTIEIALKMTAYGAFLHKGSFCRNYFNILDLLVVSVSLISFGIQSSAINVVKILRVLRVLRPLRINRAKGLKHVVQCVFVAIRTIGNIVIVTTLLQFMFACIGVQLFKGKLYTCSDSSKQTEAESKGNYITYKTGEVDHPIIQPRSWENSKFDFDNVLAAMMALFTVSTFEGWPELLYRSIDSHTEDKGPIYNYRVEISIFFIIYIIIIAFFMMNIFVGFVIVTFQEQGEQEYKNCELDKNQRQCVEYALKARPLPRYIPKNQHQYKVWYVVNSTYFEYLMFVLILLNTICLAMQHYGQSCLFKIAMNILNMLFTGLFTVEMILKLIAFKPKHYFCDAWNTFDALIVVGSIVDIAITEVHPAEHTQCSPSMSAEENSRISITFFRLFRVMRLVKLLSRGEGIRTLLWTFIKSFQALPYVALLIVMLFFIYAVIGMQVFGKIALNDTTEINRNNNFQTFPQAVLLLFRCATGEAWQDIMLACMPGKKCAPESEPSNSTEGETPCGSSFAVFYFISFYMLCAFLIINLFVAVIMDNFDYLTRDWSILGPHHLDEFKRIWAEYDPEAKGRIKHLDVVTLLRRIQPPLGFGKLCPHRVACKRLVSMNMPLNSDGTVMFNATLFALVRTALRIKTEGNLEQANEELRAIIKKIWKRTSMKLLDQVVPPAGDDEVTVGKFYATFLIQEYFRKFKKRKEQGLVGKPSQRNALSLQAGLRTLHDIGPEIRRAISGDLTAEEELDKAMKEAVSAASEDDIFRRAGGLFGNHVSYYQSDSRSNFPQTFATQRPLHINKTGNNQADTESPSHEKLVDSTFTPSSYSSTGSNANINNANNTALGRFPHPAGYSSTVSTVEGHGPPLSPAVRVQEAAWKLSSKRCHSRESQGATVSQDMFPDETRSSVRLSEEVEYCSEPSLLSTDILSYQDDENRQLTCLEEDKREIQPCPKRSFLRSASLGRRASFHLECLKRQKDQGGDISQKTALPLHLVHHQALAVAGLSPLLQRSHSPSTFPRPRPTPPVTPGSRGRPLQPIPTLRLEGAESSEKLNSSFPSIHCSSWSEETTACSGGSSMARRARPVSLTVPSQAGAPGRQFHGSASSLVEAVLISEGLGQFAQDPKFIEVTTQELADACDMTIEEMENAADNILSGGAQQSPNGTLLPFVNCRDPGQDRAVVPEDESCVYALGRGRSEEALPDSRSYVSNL
T2 sequence (P54290 25-944 partner limits assumed, other chains not shown): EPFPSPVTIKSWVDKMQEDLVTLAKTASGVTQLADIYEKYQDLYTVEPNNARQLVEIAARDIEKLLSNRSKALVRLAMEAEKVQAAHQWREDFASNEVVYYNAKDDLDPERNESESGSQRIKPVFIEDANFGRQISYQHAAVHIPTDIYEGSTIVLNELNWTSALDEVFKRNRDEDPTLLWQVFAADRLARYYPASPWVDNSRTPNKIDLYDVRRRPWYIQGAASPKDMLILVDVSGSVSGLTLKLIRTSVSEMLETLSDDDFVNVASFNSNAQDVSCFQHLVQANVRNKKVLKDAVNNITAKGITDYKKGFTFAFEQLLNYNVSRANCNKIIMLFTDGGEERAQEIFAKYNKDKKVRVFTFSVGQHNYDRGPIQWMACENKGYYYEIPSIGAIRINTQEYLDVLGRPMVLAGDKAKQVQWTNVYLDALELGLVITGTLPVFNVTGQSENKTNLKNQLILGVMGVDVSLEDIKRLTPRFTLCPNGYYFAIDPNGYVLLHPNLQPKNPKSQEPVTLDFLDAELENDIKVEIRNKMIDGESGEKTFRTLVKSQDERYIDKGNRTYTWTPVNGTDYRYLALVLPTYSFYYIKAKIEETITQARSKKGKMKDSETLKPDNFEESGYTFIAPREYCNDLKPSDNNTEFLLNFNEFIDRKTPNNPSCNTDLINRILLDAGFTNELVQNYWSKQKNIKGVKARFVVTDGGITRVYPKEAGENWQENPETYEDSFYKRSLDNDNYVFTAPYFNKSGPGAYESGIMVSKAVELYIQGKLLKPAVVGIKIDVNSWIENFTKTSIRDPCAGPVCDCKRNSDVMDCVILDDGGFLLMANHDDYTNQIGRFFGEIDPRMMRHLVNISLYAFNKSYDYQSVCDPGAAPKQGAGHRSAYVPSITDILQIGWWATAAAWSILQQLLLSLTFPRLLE
T2 sequence (P54290 945-1091 partner limits assumed, other chains not shown): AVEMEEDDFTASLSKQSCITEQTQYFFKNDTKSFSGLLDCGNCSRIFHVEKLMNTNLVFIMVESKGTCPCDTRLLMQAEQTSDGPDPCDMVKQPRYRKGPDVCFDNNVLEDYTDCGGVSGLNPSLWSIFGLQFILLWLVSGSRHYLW
As to the kind of experiment: Competition binding of [3H]nitrendipine to membrane fragments of rat cardiac muscle. Conditions: for pKi: pKi Ca; for Ki: [3H]nitrendipine, read-out: pKi Ca (converted).

The target in another test is T3, α2C receptor (Homo sapiens, UniProt P18825).
T3 construct: host or cells: LM(tk-) cells, line L-α2C
T3 sequence (P18825 1-462): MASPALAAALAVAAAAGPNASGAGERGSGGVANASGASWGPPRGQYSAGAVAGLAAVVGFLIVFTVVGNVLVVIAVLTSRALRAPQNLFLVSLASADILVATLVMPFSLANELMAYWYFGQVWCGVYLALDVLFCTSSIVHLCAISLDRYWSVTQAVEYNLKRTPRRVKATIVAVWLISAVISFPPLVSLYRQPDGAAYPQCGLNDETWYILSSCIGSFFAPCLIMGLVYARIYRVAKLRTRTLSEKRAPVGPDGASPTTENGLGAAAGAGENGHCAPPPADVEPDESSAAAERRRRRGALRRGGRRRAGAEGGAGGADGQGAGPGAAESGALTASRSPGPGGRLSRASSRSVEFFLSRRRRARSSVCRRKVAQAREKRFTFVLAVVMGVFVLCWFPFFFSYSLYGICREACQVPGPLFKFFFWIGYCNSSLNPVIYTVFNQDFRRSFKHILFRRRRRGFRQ
The test is described as follows: Competition binding, [3H]rauwolscine, human α2C receptor. Conditions: for pKi: pKi alpha-2 2c; for Ki: read-out: pKi alpha-2 2c (converted). The gist of the method: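 Equilibrium displacement of [3H]rauwolscine (0.5 nM) measured on membranes from stably transfected LM(tk−) lines, one per α2 subtype, in glycylglycine buffer at pH 7.6. Nonspecific binding set by 10 μM phentolamine; separation by filtration.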

Setting [2] is: [3H]prazosin, cloned human α1A receptor, LM(tk−) cell membranes.
[3] abbreviates: rat cardiac muscle membrane fragments, L-type calcium channel.
The mark [4] stands for this setting: [3H]rauwolscine, human α2C receptor, LM(tk−) cells.
[5] abbreviates: [3H]prazosin, cloned human receptor in LM(tk-) cell membranes, SEM and n in lines below.
The mark [6] stands for this setting: rat cardiac muscle membranes, SEM and n in lines below.
Where [7] appears, read: [3H]rauwolscine, LM(tk-) cell line L-α2C, SEM and n in lines below.

SMILES strings stand for the structures. pKi: −log10 of the molar value. Structures can show the parent of a compound that is named as a salt. Where two headings read alike, the source gives them in different places.

With `COC(=O)C1=C(C)NC(C)=C(C(=O)NCCCN2CCC(c3ccccc3)(c3ccccc3)CC2)C1c1ccc(C(=O)OC)cc1` (stereo not drawn) [Example 25, 1,4-Dihydro-3-methoxycarbonyl-4-(4-methoxycarbonylphenyl)-2,6-dimethyl-5-(N-(3-(4,4-diphenylpiperidin-1-yl)propyl)carboxamide)pyridine], the pKi (commonly −log10 of the Ki, conventionally taken in molar units) in test [1] is 6.19; on L-type calcium channel, 5.94; at α2C receptor it was 5.99.

Turning to `COC(=O)C1=C(C)NC(C)=C(C(=O)NCCCN2CCC(c3ccccc3)(c3ccccc3)CC2)C1c1ccc(C(C)C)cc1` (stereo not drawn) [Example 18, 1,4-Dihydro-4-(4-isopropylphenyl)-3-methoxycarbonyl-2,6-dimethyl-5-(N-(3-(4,4-diphenylpiperidin-1-yl)propyl)carboxamido)pyridine], the pKi is 6.05 in test [1], 6.79 on L-type calcium channel and 6.03 at α2C receptor.

For `COC(=O)C1=C(C)NC(C)=C(C(=O)NCCCN2CCC(c3ccccc3)(c3ccccc3)CC2)C1c1ccc(OC)cc1` (stereo not drawn) [Example 21, 1,4-Dihydro-3-methoxycarbonyl-4-(4-Methoxyphenyl)-2,6-dimethyl-5-(N-(3-(4,4-diphenylpiperidin-1-yl)propyl)carboxamido)pyridine], the pKi in test [1] was 6.31; at L-type calcium channel, 6.00; at α2C receptor it was 6.11.

For the molecule `CCC1=C(C(N)=O)C(c2ccc([N+](=O)[O-])cc2)C(C(=O)NCCCN2CCC(C#N)(c3ccccc3)CC2)=C(CC)N1` (racemic) [(±)-102, 5-Carboxamido-3-{N-[(4-cyano-4-phenylpiperidin-1-ly)propyl]carboxamido-2,6-diethyl-1,4-dihydro-4-(4-nitrophenyl)pyridine hydrochloride hydrate], the pKi in test [1] (setting [2]) was 5.46; at α2C receptor (setting [4]), 5.76. The Ki at L-type calcium channel (setting [3]) is 72.4 µM.

Regarding `COc1cccc(C2C(C(N)=O)=C(C)NC(C)=C2C(=O)NCCCN2CCC(c3ccccc3)(c3ccccc3)CC2)c1` (stereo not drawn) [Example 117, 5-Carboxamido-1,4-dihydro-4-(3-Methoxyphenyl)-2,6-dimethyl-3-(N-(3-(4,4-diphenylpiperidin-1-yl)propyl)carboxamido)-pyridine], the negative-log Ki (pKi) in test [1] (setting [2]) is 5.68. Further, the Ki at L-type calcium channel (setting [3]) is 1000 µM; on α2C receptor (setting [4]), 759 nM.

Regarding `COC(=O)C1=C(C)NC(C)=C(C(=O)NCCCN2CCC(c3ccccc3)(c3ccccc3)CC2)C1c1ccc2c(c1)OCO2` (stereo not drawn) [Example 11, 1,4-Dihydro-3-methoxycarbonyl-2,6-dimethyl-4-(3,4-methylenedioxyphenyl)-5-(N-(3-(4,4-diphenylpiperidin-1-yl)propyl)carboxamido)pyridine], the pKi in test [1] is 6.52; at L-type calcium channel, 5.64; on α2C receptor it was 6.24.

`CCC1=C(C(N)=O)C(c2ccc([N+](=O)[O-])cc2)C(C(=O)NCCCN2CCN(c3ccccc3OC)CC2)=C(CC)N1` (stereo not drawn) [Example 125, 5-Carboxamido-2,6-diethyl-1,4-dihydro-3-(N-{3-[4-(2-methoxyphenyl)piperazin-1-yl]propyl})carboxamido-4-(4-nitrophenyl)pyridine]: the Ki in test [1] ([3H]prazosin, cloned human α1A receptor, LM(tk−) cell membranes, read-out: pKi alpha-1 1a (converted)) is 77.6 nM; on L-type calcium channel (setting [3]), 38 µM; at α2C receptor (setting [4]), 22.9 nM.

`CCC1=C(C(N)=O)C(c2ccc([N+](=O)[O-])cc2)C(C(=O)NCCCN2CCC(C)(c3ccccc3)CC2)=C(CC)N1` (stereo not drawn) [Example 106, 5-Carboxamido-2,6-diethyl-1,4-dihydro-3-{N-[3-(4-Methyl-4-phenylpiperidin-1-yl)propyl]}carboxamido-4-(4-nitrophenyl)pyridine hydrochloride hydrate] showed a pKi in test [1] (setting [2]) of 5.62. Also, the figures for the Ki at L-type calcium channel (setting [3]) and at α2C receptor (setting [4]) were 1000 µM and 295 nM, respectively.

In test [1] (setting [2]), `CC1=C(C(=O)NCCCN2CCC(c3ccccc3)(c3ccccc3)CC2)C(c2ccc([N+](=O)[O-])cc2)C(C(=O)OCCC#N)=C(C)N1` (stereo not drawn) [Example 160] gave a pKi of 6.60. The Ki at L-type calcium channel (setting [3]) was 15.5 µM; on α2C receptor (setting [4]) it was 155 nM.

`COC(=O)C1=C(C)NC(C)=C(C(=O)NCCCN2CCC(c3ccccc3)(c3ccccc3)CC2)C1c1ccc(F)cc1` (stereo not drawn) [Example 20, 4-(4-Fluorophenyl)-1,4-dihydro-3-methoxycarbonyl-2,6-dimethyl-5-(N-(3-(4,4-diphenylpiperidin-1-yl)propyl)carboxamido)pyridine]: the pKi is 5.87 in test [1], 5.94 at L-type calcium channel and 6.09 on α2C receptor.

In turn, `CCC1=C(C(=O)NCCCN2CCC(c3ccccc3)(c3ccccc3)CC2)C(c2ccc([N+](=O)[O-])cc2)C(C(N)=O)=C(C)N1` (stereo not drawn) [Example 81, 5-carboxamido-2-ethyl-1,4-dihydro-6-methyl-4-(4-nitro)phenyl-3-(N-(3-(4,4-diphenylpiperidin-1-yl)propyl))carboxamidopyridine hydrochloride] gave a pKi in test [1] (setting [5]) of 6.39. For the same molecule, the Ki was 32.4 µM at L-type calcium channel (setting [6]) and 123 nM at α2C receptor (setting [7]).

Regarding `CCC1=C(C(=O)NCCCN2CCC(c3ccccc3)(c3ccccc3)CC2)C(c2ccc([N+](=O)[O-])cc2)C(C(=O)OCc2ccccc2)=C(C)N1` (stereo not drawn) [Example 4, 5-Benzyloxycarbonyl-2-ethyl-1,4-dihydro-6-methyl-4-(4-nitrophenyl)-3-(N-(3-(4,4-diphenylpiperidin-1-yl)propyl)carboxamido) pyridine, Hydrochloride Salt, Hydrate], the pKi in test [1] (setting [5]) is 6.71. The results for the Ki on L-type calcium channel (setting [6]) and at α2C receptor (setting [7]) were 0.977 µM and 501 nM, respectively.

For the molecule `COC(=O)C1=C(C)NC(C)=C(C(=O)NCCCN2CCC(c3ccccc3)(c3ccccc3)CC2)C1c1ccc(OC)c(OC)c1` (stereo not drawn) [Example 26], the pKi in test [1] was 6.28; on L-type calcium channel, 7.06; on α2C receptor, 5.83.

Turning to `COC(=O)C1=C(C)NC(C)=C(C(=O)NCCCN2CCC(c3ccccc3)(c3ccccc3)CC2)C1c1ccc(Cl)c([N+](=O)[O-])c1` (stereo not drawn) [Example 16, 4-(4-Chloro-3-nitrophenyl)-1,4-dihydro-3-methoxycarbonyl-2,6-dimethyl-5-(N-(3-(4,4-diphenylpiperidin-1-yl)propyl)carboxamido)pyridine], the values for the pKi (in test [1]; at L-type calcium channel; at α2C receptor) were 6.37, 6.09 and 6.42, respectively.

Consider `COC(=O)C1=C(C)NC(C)=C(C(=O)NCCCN2CCC(c3ccccc3)(c3ccccc3)CC2)C1c1ccc(I)cc1` (stereo not drawn) [Example 13, 1,4-Dihydro-4-(4-iodophenyl)-3-methoxycarbonyl-2,6-dimethyl-5-(N-(3-(4,4-diphenylpiperidin-1-yl)propyl)carboxamido)pyridine], for which the pKi is 6.41 in test [1], 5.05 on L-type calcium channel and 6.19 at α2C receptor.

For the molecule `COC(=O)C1=C(C)NC(C)=C(C(=O)NCCCN2CCC(c3ccccc3)(c3ccccc3)CC2)C1c1ccc([N+](=O)[O-])c(OC)c1` (stereo not drawn) [Example 29, 1,4-Dihydro-3-methoxycarbonyl-4-(3-methoxy-4-nitrophenyl)-2,6-dimethyl-5-(N-(3-(4,4-diphenylpiperidin-1-yl)propyl)carboxamido)pyridine], in test [1] (setting [5]), the pKi was 6.58. Moreover, the Ki at L-type calcium channel (setting [6]) was 13.8 µM; on α2C receptor (setting [7]), 398 nM.

In test [1] (setting [5]), `COC(=O)C1=C(C)NC(c2ccoc2)=C(C(=O)NCCCN2CCC(c3ccccc3)(c3ccccc3)CC2)C1c1ccc([N+](=O)[O-])cc1` (stereo not drawn) [Example 43, 2-(Furan-3-yl)-, 4-dihydro-5-methoxycarbonyl-6-methyl-4-(4-nitrophenyl)-3-(N-(3-(4,4-diphenylpiperidin-1-yl)propyl)carboxamidopyridine, hydrochloride salt] had a pKi of 6.50. Further, the Ki on L-type calcium channel (setting [6]) is 18.6 µM; at α2C receptor (setting [7]) it was 398 nM.
